# Experimental data from publication PMC5216119, “An allosteric conduit facilitates dynamic multisite substrate recognition by the SCF^Cdc4 ubiquitin ligase” (Nature Communications, 2017).
# Columns and labels:
# Cdc4^WD40 [1] = target: T1, Cdc4^WD40 (Saccharomyces cerevisiae, UniProt P07834); experiment: Isothermal titration calorimetry (ITC) with Cdc4^WD40; set-up: species or system yeast; details: 20 °C, cell 30 μM Cdc4^WD40, syringe 100 μM pSic1 or 200 μM SCF-I2, 50 mM Na2HPO4 pH 7.2, 150 mM NaCl, 2 mM β-mercaptoethanol, single-site model, repeated twice, read-out: Kd value for binding Cdc4^WD40 (ITC)
# T1 sequence (P07834 367-744): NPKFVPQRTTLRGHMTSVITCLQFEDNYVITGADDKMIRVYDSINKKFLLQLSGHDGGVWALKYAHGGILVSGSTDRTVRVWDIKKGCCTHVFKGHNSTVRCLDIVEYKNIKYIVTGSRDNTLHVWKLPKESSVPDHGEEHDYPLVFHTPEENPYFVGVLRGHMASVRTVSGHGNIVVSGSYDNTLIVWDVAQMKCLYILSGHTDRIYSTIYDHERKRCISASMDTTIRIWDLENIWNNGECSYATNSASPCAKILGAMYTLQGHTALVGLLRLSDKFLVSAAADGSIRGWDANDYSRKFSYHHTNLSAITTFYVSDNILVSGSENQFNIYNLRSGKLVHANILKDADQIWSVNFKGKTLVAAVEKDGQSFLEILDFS
# Source text: We determined the effects of substrate binding on the isolated WD40 domain of Cdc4 (Cdc4^WD40), which is more amenable to NMR due to its size (40 kDa) than the minimal Cdc4-Skp1 complex (∼70 kDa). The N-terminal targeting region of Sic1 (residues 1-90, called Sic1^1-90), which contains 7 of the 9 Sic1 CPD sites and is sufficient for Cdc4 binding, was phosphorylated to completion by Cln2-Cdc28-Cks1 kinase (called pSic1). We used isothermal titration calorimetry (ITC) to determine the affinity of Cdc4^WD40 for pSic1 and SCF-I2 (Supplementary Fig. 1a–c). […] The Kd value for SCF-I2 binding Cdc4^WD40 was 0.6±0.02 μM, concordant with the ∼2 μM Ki value determined for SCF-I2-Cdc4-Skp1 by a fluorescence polarization competition assay.
# ITC experiments were performed using VP-ITC and iTC200 microcalorimeters (MicroCal Inc., Northampton, MA) at 20 °C with the sample cell containing 30 μM Cdc4^WD40 and the syringe loaded with 100 μM pSic1 or 200 μM SCF-I2. The samples were dialysed in buffer containing 50 mM Na2HPO4, pH 7.2, 150 mM NaCl, 2 mM β-mercaptoethanol. Runs were performed using 13–20 injections at an interval of 120 s and each binding experiment was repeated twice. Using the Origin software provided by MicroCal Inc., heat associated with each injection was integrated and thermodynamic parameters were extracted by fitting the data to a single-site binding model.
# Skp1-Cdc4 complex = Skp1-Cdc4 complex (Saccharomyces cerevisiae, UniProt P07834+P52286); experiment: Fluorescence polarization inhibition by SCF-I2 of Ash1 peptide binding to Skp1-Cdc4; set-up: species or system yeast; details: compared with Ash1^18pT286/pT290 or Ash1^18pT286/pT290/pS294 peptides
# Source text: (f) Fluorescence polarization of the fluorescein-labelled Ash1 peptides (circle, pT286/pT290/pS294, square, pT286/pT290, triangle, pT290/pS294, inverted triangle doubly phosphorylated CycE peptide) in the presence of increasing concentrations of the recombinant Skp1-Cdc4 complex (mP, millipolarization unit). (g) Fluorescence polarization of the fluorescein-labelled Ash1 peptides (circle, pT286/pT290/pS294, square, pT286/pT290, triangle, pT290/pS294, inverted triangle, doubly phosphorylated CycE peptide) in the presence of increasing concentrations of the SCF-I2 inhibitor.
# Fluorescence polarization assays containing 0.21 μM Skp1-Cdc4 complex and 10 nM fluorescently labelled cyclin E-derived or Ash1-derived phosphopeptides in 10 mM HEPES (pH 7.5), 40 mM NaCl, 0.1 mg ml^−1 BSA and 1 mM DTT in a final volume of 23.5 μl per well were performed on an Analyst HT plate reader (Molecular Devices Corp., Sunnyvale CA).
# Cdc4-Skp1 = details: read-out: Ki value for SCF-I2-Cdc4-Skp1 by fluorescence polarization competition assay; cited from earlier work
# Cdc4^WD40 [2] = target: T1, Cdc4^WD40; details: compared to a singly phosphorylated high-affinity CPD of similar affinity for Cdc4; cited from earlier work
# Source text: The phenomenon of allostery, whereby ligand binding at one site alters interactions at a physically distant site, allows for complex control of protein function. […] SCF-I2 elicits this allosteric effect through structural changes that occlude the P−2 region of the CPD pocket.
# Skp1-Cdc4 complex, sequence (P07834 whole entry): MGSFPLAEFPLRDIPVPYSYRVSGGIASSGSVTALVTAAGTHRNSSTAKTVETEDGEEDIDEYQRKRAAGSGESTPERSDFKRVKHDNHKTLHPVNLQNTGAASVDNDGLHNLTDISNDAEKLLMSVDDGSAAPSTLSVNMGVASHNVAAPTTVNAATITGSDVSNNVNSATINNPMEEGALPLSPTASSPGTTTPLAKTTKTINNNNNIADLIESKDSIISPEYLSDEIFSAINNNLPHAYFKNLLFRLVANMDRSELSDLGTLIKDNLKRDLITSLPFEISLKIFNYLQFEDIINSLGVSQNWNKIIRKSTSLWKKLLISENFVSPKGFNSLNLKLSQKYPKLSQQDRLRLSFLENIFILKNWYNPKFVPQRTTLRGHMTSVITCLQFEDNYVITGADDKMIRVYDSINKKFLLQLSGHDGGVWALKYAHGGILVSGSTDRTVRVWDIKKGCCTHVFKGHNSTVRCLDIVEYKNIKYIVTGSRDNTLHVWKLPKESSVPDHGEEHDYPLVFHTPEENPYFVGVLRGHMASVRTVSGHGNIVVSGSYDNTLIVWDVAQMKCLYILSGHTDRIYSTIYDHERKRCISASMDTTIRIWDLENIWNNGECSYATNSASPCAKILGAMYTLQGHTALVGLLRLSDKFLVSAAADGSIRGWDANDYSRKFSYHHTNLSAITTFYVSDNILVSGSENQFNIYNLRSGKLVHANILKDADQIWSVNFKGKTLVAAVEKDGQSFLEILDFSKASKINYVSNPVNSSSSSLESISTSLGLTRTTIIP
# Skp1-Cdc4 complex, sequence (P52286 whole entry partner): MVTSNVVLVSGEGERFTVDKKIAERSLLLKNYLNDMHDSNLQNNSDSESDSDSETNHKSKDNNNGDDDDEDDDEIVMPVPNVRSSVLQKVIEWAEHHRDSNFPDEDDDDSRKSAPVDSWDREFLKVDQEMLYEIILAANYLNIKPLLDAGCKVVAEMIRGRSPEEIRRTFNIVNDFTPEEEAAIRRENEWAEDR
compound,measurement,setting,value
O=C(O)c1ccc2ccccc2c1-c1c(C(=O)O)ccc2ccccc12 [SCF-I2],Kd,Cdc4^WD40 [1],600 ± 20 nM
same,fold higher potency of SCF-I2 for inhibiting Ash1^18pT290/pS294 binding,Skp1-Cdc4 complex,10 fold
same,Ki,Cdc4-Skp1,~2000 nM
same,fold lower potency of SCF-I2 towards full-length Sic1,Cdc4^WD40 [2],10 fold
